Data set [1] deals with male rats of the Sprague Dawley S.P.F. strain. The experiment in a line: Hypolipemiant activity in rats on sucrose- and cholesterol-rich regime, % variation of levels versus untreated controls. The class given is in vivo, rat (Sprague Dawley S.P.F.). Conditions: 10 days, esophagus tube, vs untreated controls. On the procedure: This test was effected on groups of 8 male rats of the Sprague Dawley S.P.F. strain weighing about 200 g and the animals received a regime containing 50% of saccharose and which was rich in cholesterol (1%). The rats were treated over 10 days with the test products which were administered through an esophagus tube as a suspension in water containing carboxymethylcellulose. The animals were left without food 16 hours after the last administration of the test product and then killed by an abdominal puncture and from the blood sample with sodium heparinate, the levels of triglycerides, cholesterol and total lipids were determined by the following methods.
The triglyceride level was determined by the semiautomatic technique of Kessler et al [Automation in Analytical Chemistry, 1965, p. 341] modified by Claude et al [Ann. Biol. Clin., Vol. 26 3-4 (1968), p. 451]. The cholesterol levels were determined by the technique of Levine [Symposium Technicon, Vol. I, (1967), p. 25] adapted to auto-analyzer system I. The nephelometric level of total lipids was determined semi-automatically by the method of Girard et al. [Symposium Technicon, 1970]. The variations expressed in percentages of the level of triglycerides, cholesterol and total lipids after administration of the various dosage of the test products in the treated animals as compared to the untreated controls and the results are reported in Table I.

The nature of data set [2]: Acute toxicity in mice, DL50 dose. Particulars: mouse, in vivo, ip, intraperitoneal, suspension in aqueous carboxymethylcellulose, observed one week. On the procedure:
The acute toxicity was determined on groups of 5 mice weighing about 18 to 22 g and the test products were intraperitoneally administered in suspension in an aqueous carboxymethylcellulose.

Where only a bound is given, the exact number is not on record here.

For `CCC1(CC)OC(C(=O)O)Oc2ccc(Cl)cc21` (stereo not drawn) [Example 1, 6-chloro-4,4-diethyl-[4H]-1,3-benzodioxin-2-carboxylic acid], in data set [1] (50 mg/kg day), the “% Variation of levels, Cholesterol” value is recorded as -37%; the “% Variation of levels, Total Lipids” value is given as -39%; the “% Variation of levels, Triglycerides” value is recorded as -11%. The LD50 (in general, the dose expected to kill half of the subjects tested) at 168 h in data set [2] came out at 200 mg/kg.
For the compound `CC1(C)OC(C(=O)O)Oc2ccc(Cl)cc21` (stereo not drawn) [Example 2, 6-chloro-4,4-dimethyl-[4H]-1,3-benzodioxin-2-carboxylic acid], in data set [1] (50 mg/kg day), the “% Variation of levels, Cholesterol” value is listed as -23%; the “% Variation of levels, Total Lipids” value was -28%; the “% Variation of levels, Triglycerides” value is recorded as -11%. Also, the median lethal dose (LD50) at 168 h in data set [2] was found to be 450 mg/kg.
On to `COC(=O)C1Oc2ccc(Cl)cc2C(Cc2ccccc2)(c2ccccc2)O1` (single isomer, unassigned) [Example 32, methyl 6-chloro-4-phenyl-4-benzyl-[4H]-1,3-benzodioxin-2-carboxylate], for which, in data set [1] (5 mg/kg day), the “% Variation of levels, Cholesterol” value is reported as -45%; the “% Variation of levels, Total Lipids” value is on record as -41%; the “% Variation of levels, Triglycerides” value is listed as -11%. In data set [2], this compound showed a 50% lethal dose (LD50) at 168 h of over 1000 mg/kg.
Consider `COC(=O)C1Oc2ccc(Cl)cc2C(C)(c2cccc(C(F)(F)F)c2)O1` (stereo not drawn) [Example 18], for which, in data set [1] (2 mg/kg day), the “% Variation of levels, Cholesterol” value was -30%; the “% Variation of levels, Total Lipids” value is -29%; the “% Variation of levels, Triglycerides” value is on record as -15%. In data set [1] (5 mg/kg day), the “% Variation of levels, Cholesterol” value was -41%; the “% Variation of levels, Total Lipids” value is given as -51%; the “% Variation of levels, Triglycerides” value was -47%. In addition, the 50% lethal dose (LD50) at 168 h in data set [2] is over 1000 mg/kg.
Take `COC(=O)C1Oc2ccc(OC)cc2C(C)(c2ccccc2)O1` (single isomer, unassigned) [Example 30, methyl 6-methoxy-4-methyl-4-phenyl-[4H]-1,3-benzodioxin-2-carboxylate]: in data set [1] (5 mg/kg day), the “% Variation of levels, Cholesterol” value is -43%; the “% Variation of levels, Total Lipids” value is listed as -41%; the “% Variation of levels, Triglycerides” value is -33%. Further, the 50% lethal dose (LD50) at 168 h in data set [2] is over 1000 mg/kg.
On to `C=CC1(c2ccccc2)OC(C(=O)OC)Oc2ccc(Cl)cc21` (single isomer, unassigned) [Example 22, methyl 6-chloro-4-phenyl-4-ethenyl-[4H]-1,3-benzodioxin-2-carboxylate], for which, in data set [1] (5 mg/kg day), the “% Variation of levels, Cholesterol” value is -35%; the “% Variation of levels, Total Lipids” value was -34%; the “% Variation of levels, Triglycerides” value is on record as -79%. Moreover, the LD50 at 168 h in data set [2] is about 700 mg/kg.

(Values after US4281012A, “[4H]-1,3-Benzodioxin-2-carboxylic acids” (Roussel Uclaf, priority 1978, dated 1981).)
